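Where inhibition never reached the appropriate level, the endpoint shown equals the highest concentration tested. Otherwise, values were interpolated linearly from a five-concentration, 48-hour dose response in 96-well plates. The concentration for 50% growth inhibition is given as GI50.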 Activity calls are given as the source filed them. No stated cut-off is given here; in the data, active = GI50 up to about 1.1 µM and inactive = higher.
Legend:
Experiment in all cases: NCI-60 cell line screen, 48 h
OVCAR-3 = tested on: OVCAR-3
ACHN = tested on: ACHN
DLD-1 = tested on: DLD-1
UACC-62 = tested on: UACC-62
SNB-75 = tested on: SNB-75
NCI-H460 = tested on: NCI-H460
A549 = tested on: A549
786-0 = tested on: 786-0
RXF 393 = tested on: RXF 393
UO-31 = tested on: UO-31
SNB-19 = tested on: SNB-19
U-251 = tested on: U-251
EKVX = tested on: EKVX
NCI-H226 = tested on: NCI-H226
SK-MEL-2 = tested on: SK-MEL-2
KM-20L2 = tested on: KM-20L2
SF-539 = tested on: SF-539
M14 = tested on: M14
UACC-257 = tested on: UACC-257
OVCAR-4 = tested on: OVCAR-4
NCI-H522 = tested on: NCI-H522
RPMI-8226 = tested on: RPMI-8226
SK-MEL-5 = tested on: SK-MEL-5
LXFL 529 = tested on: LXFL 529
HL-60 = tested on: HL-60
HT-29 = tested on: HT-29
SN12C = tested on: SN12C
HOP-92 = tested on: HOP-92
IGROV-1 = tested on: IGROV-1
K562 = tested on: K562
SK-MEL-28 = tested on: SK-MEL-28
HOP-18 = tested on: HOP-18
SW-620 = tested on: SW-620
TK-10 = tested on: TK-10
SF-295 = tested on: SF-295
SK-OV-3 = tested on: SK-OV-3
DMS-273 = tested on: DMS-273
A498 = tested on: A498
MOLT-4 = tested on: MOLT-4
HCC 2998 = tested on: HCC 2998
LOX IMVI = tested on: LOX IMVI
M19-MEL = tested on: M19-MEL
SF-268 = tested on: SF-268
Malme-3M = tested on: Malme-3M
HCT-15 = tested on: HCT-15
CCRF-CEM = tested on: CCRF-CEM
COLO 205 = tested on: COLO 205
NCI-H23 = tested on: NCI-H23
CAKI-1 = tested on: CAKI-1
XF498 = tested on: XF498
OVCAR-5 = tested on: OVCAR-5
KM12 = tested on: KM12
OVCAR-8 = tested on: OVCAR-8
HOP-62 = tested on: HOP-62
HCT-116 = tested on: HCT-116
DMS-114 = tested on: DMS-114
SR = tested on: SR
SNB-78 = tested on: SNB-78

SMILES: CN(CC(=O)O)S(=O)(=O)c1ccc(Cl)cc1
- GI50 (OVCAR-3): > 100 µM (inactive)
- GI50 (ACHN): > 100 µM (inactive)
- GI50 (DLD-1): > 100 µM (inactive)
- GI50 (UACC-62): > 100 µM (inactive)
- GI50 (SNB-75): > 100 µM (inactive)
- GI50 (NCI-H460): > 100 µM (inactive)
- GI50 (A549): > 100 µM (inactive)
- GI50 (786-0): > 100 µM (inactive)
- GI50 (RXF 393): > 100 µM (inactive)
- GI50 (UO-31): > 100 µM (inactive)
- GI50 (SNB-19): > 100 µM (inactive)
- GI50 (U-251): > 100 µM (inactive)
- GI50 (EKVX): > 100 µM (inactive)
- GI50 (NCI-H226): > 100 µM (inactive)
- GI50 (SK-MEL-2): > 100 µM (inactive)
- GI50 (KM-20L2): > 100 µM (inactive)
- GI50 (SF-539): > 100 µM (inactive)
- GI50 (M14): > 100 µM (inactive)
- GI50 (UACC-257): > 100 µM (inactive)
- GI50 (OVCAR-4): > 100 µM (inactive)
- GI50 (NCI-H522): > 100 µM (inactive)
- GI50 (RPMI-8226): > 100 µM (inactive)
- GI50 (SK-MEL-5): > 100 µM (inactive)
- GI50 (LXFL 529): > 100 µM (inactive)
- GI50 (HL-60): > 100 µM (inactive)
- GI50 (HT-29): > 100 µM (inactive)
- GI50 (SN12C): > 100 µM (inactive)
- GI50 (HOP-92): > 100 µM (inactive)
- GI50 (IGROV-1): > 100 µM (inactive)
- GI50 (K562): > 100 µM (inactive)
- GI50 (SK-MEL-28): > 100 µM (inactive)
- GI50 (HOP-18): > 100 µM (inactive)
- GI50 (SW-620): > 100 µM (inactive)
- GI50 (TK-10): > 100 µM (inactive)
- GI50 (SF-295): > 100 µM (inactive)
- GI50 (SK-OV-3): > 100 µM (inactive)
- GI50 (DMS-273): > 100 µM (inactive)
- GI50 (A498): > 100 µM (inactive)
- GI50 (MOLT-4): > 100 µM (inactive)
- GI50 (HCC 2998): > 100 µM (inactive)
- GI50 (LOX IMVI): > 100 µM (inactive)
- GI50 (M19-MEL): > 100 µM (inactive)
- GI50 (SF-268): > 100 µM (inactive)
- GI50 (Malme-3M): > 100 µM (inactive)
- GI50 (HCT-15): > 100 µM
- GI50 (CCRF-CEM): > 100 µM (inactive)
- GI50 (COLO 205): > 100 µM (inactive)
- GI50 (NCI-H23): > 100 µM (inactive)
- GI50 (CAKI-1): > 100 µM (inactive)
- GI50 (XF498): > 100 µM (inactive)
- GI50 (OVCAR-5): > 100 µM (inactive)
- GI50 (KM12): > 100 µM (inactive)
- GI50 (OVCAR-8): > 100 µM (inactive)

SMILES: COc1ccc2c(c1OC)C(=O)C2
- GI50 (ACHN): > 100 µM (inactive)
- GI50 (UACC-62): > 100 µM (inactive)
- GI50 (SNB-75): > 100 µM (inactive)
- GI50 (NCI-H460): > 100 µM (inactive)
- GI50 (HOP-62): > 100 µM (inactive)
- GI50 (A549): > 100 µM (inactive)
- GI50 (786-0): > 100 µM (inactive)
- GI50 (RXF 393): > 100 µM (inactive)
- GI50 (HCT-116): > 100 µM (inactive)
- GI50 (UO-31): > 100 µM (inactive)
- GI50 (SNB-19): > 100 µM (inactive)
- GI50 (U-251): > 100 µM (inactive)
- GI50 (EKVX): > 100 µM (inactive)
- GI50 (NCI-H226): > 100 µM (inactive)
- GI50 (SK-MEL-2): > 100 µM (inactive)
- GI50 (KM-20L2): > 100 µM (inactive)
- GI50 (M14): > 100 µM (inactive)
- GI50 (UACC-257): > 100 µM (inactive)
- GI50 (OVCAR-4): > 100 µM (inactive)
- GI50 (NCI-H522): > 100 µM (inactive)
- GI50 (RPMI-8226): > 100 µM (inactive)
- GI50 (SK-MEL-5): > 100 µM (inactive)
- GI50 (LXFL 529): > 100 µM (inactive)
- GI50 (HL-60): > 100 µM (inactive)
- GI50 (HT-29): > 100 µM (inactive)
- GI50 (SN12C): > 100 µM (inactive)
- GI50 (K562): > 10 µM (inactive)
- GI50 (DMS-114): > 100 µM (inactive)
- GI50 (SK-MEL-28): > 100 µM (inactive)
- GI50 (HOP-18): > 100 µM (inactive)
- GI50 (SW-620): > 100 µM (inactive)
- GI50 (TK-10): > 100 µM (inactive)
- GI50 (SF-295): > 100 µM (inactive)
- GI50 (SK-OV-3): > 100 µM (inactive)
- GI50 (DMS-273): > 100 µM (inactive)
- GI50 (MOLT-4): > 100 µM (inactive)
- GI50 (LOX IMVI): > 100 µM (inactive)
- GI50 (M19-MEL): > 100 µM (inactive)
- GI50 (SF-268): > 100 µM (inactive)
- GI50 (Malme-3M): > 100 µM (inactive)
- GI50 (HCT-15): > 100 µM
- GI50 (CCRF-CEM): > 100 µM (inactive)
- GI50 (SR): > 100 µM (inactive)
- GI50 (COLO 205): > 100 µM (inactive)
- GI50 (NCI-H23): > 100 µM (inactive)
- GI50 (XF498): > 100 µM (inactive)
- GI50 (KM12): > 100 µM (inactive)
- GI50 (OVCAR-8): > 100 µM (inactive)

SMILES: O=c1n(C2CCCCC2)c(=C(Cl)Cl)c(=C(Cl)Cl)n1C1CCCCC1
- GI50 (OVCAR-3): > 100 µM (inactive)
- GI50 (ACHN): > 100 µM (inactive)
- GI50 (DLD-1): > 100 µM (inactive)
- GI50 (UACC-62): > 100 µM (inactive)
- GI50 (SNB-75): > 100 µM (inactive)
- GI50 (NCI-H460): > 100 µM (inactive)
- GI50 (HOP-62): > 100 µM (inactive)
- GI50 (A549): > 100 µM (inactive)
- GI50 (786-0): > 100 µM (inactive)
- GI50 (RXF 393): > 100 µM (inactive)
- GI50 (HCT-116): 85.7 µM (inactive)
- GI50 (UO-31): > 100 µM (inactive)
- GI50 (SNB-19): > 100 µM (inactive)
- GI50 (U-251): > 100 µM (inactive)
- GI50 (EKVX): > 100 µM (inactive)
- GI50 (NCI-H226): > 100 µM (inactive)
- GI50 (SK-MEL-2): > 100 µM (inactive)
- GI50 (KM-20L2): > 100 µM (inactive)
- GI50 (SF-539): > 100 µM (inactive)
- GI50 (UACC-257): 54.5 µM (inactive)
- GI50 (OVCAR-4): > 100 µM (inactive)
- GI50 (NCI-H522): > 100 µM (inactive)
- GI50 (RPMI-8226): 34.6 µM (inactive)
- GI50 (SK-MEL-5): > 100 µM (inactive)
- GI50 (HL-60): 39.6 µM (inactive)
- GI50 (HT-29): > 100 µM (inactive)
- GI50 (SN12C): > 100 µM (inactive)
- GI50 (IGROV-1): > 100 µM (inactive)
- GI50 (K562): > 100 µM (inactive)
- GI50 (DMS-114): 53.1 µM (inactive)
- GI50 (SK-MEL-28): > 100 µM (inactive)
- GI50 (HOP-18): > 100 µM (inactive)
- GI50 (SW-620): > 100 µM (inactive)
- GI50 (TK-10): > 100 µM (inactive)
- GI50 (SF-295): > 100 µM (inactive)
- GI50 (SK-OV-3): > 100 µM (inactive)
- GI50 (DMS-273): > 100 µM (inactive)
- GI50 (A498): > 100 µM (inactive)
- GI50 (MOLT-4): > 100 µM (inactive)
- GI50 (HCC 2998): > 100 µM (inactive)
- GI50 (LOX IMVI): > 100 µM (inactive)
- GI50 (M19-MEL): > 100 µM (inactive)
- GI50 (SF-268): > 100 µM (inactive)
- GI50 (Malme-3M): > 100 µM (inactive)
- GI50 (HCT-15): > 100 µM
- GI50 (CCRF-CEM): > 100 µM (inactive)
- GI50 (SR): > 100 µM (inactive)
- GI50 (COLO 205): > 100 µM (inactive)
- GI50 (NCI-H23): > 100 µM (inactive)
- GI50 (XF498): > 100 µM (inactive)
- GI50 (SNB-78): 85.1 µM (inactive)
- GI50 (OVCAR-5): > 100 µM (inactive)
- GI50 (KM12): > 100 µM (inactive)
- GI50 (OVCAR-8): > 100 µM (inactive)

Reference: ChEMBL document CHEMBL1201862, “PubChem BioAssay data set” (2004)
